“And” between values parts separate entries of the source, which are not always exact repeats. Equal values may be shown once. Inconclusive results and toxic doses are left out. Rule for the calls: active = survival T/C of 150% or more; inactive = T/C below 125% in these data.
Tested on: CD2F1 mice, L1210 leukemia ip, survival T/C
Assay: NCI In Vivo Anticancer Drug Screen. Data for tumor model L1210 Leukemia (intraperitoneal) in CD2F1 (CDF1) mice
Settings: higher = longer survival
How it was run: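 Compound-dosed mice with transplantable tumor versus matched vehicle controls; endpoint ratio T/C reported.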

Measured: T/C

Nc1ncnc2c1ccn2C1OC(CO)C(O)C1O (stereo unspecified)
inactive: endpoint: mean survival time, dose: 0.13 mg/kg/injection, schedule: Q01DX009 (ip), vehicle: saline 104 % of control and 106 % of control | endpoint: mean survival time, dose: 0.16 mg/kg/injection, schedule: Q01DX010 (ip), vehicle: saline 98 % of control and 108 % of control | endpoint: mean survival time, dose: 0.25 mg/kg/injection, schedule: Q01DX009 (ip), vehicle: saline 104 % of control and 110 % of control | endpoint: mean survival time, dose: 0.32 mg/kg/injection, schedule: Q01DX010 (ip), vehicle: saline 104 % of control and 111 % of control | endpoint: mean survival time, dose: 0.5 mg/kg/injection, schedule: Q01DX009 (ip), vehicle: saline 103 % of control and 104 % of control | endpoint: mean survival time, dose: 0.5 mg/kg/injection, schedule: Q03HX008 (ip), vehicle: carboxymethylcellulose (CMC) 102 % of control | endpoint: mean survival time, dose: 0.5 mg/kg/injection, schedule: Q06HX004 (ip), vehicle: carboxymethylcellulose (CMC) 101 % of control | endpoint: mean survival time, dose: 0.63 mg/kg/injection, schedule: Q01DX009 (ip), vehicle: saline 114 % of control | endpoint: mean survival time, dose: 0.63 mg/kg/injection, schedule: Q01DX010 (ip), vehicle: saline 98 % of control and 107 % of control | endpoint: mean survival time, dose: 1.0 mg/kg/injection, schedule: Q01DX001 (ip), vehicle: carboxymethylcellulose (CMC) 109 % of control | endpoint: mean survival time, dose: 1.0 mg/kg/injection, schedule: Q01DX009 (ip), vehicle: saline 99 % of control and 107 % of control | endpoint: mean survival time, dose: 1.0 mg/kg/injection, schedule: Q03HX008 (ip), vehicle: carboxymethylcellulose (CMC) 104 % of control | endpoint: mean survival time, dose: 1.0 mg/kg/injection, schedule: Q06HX004 (ip), vehicle: carboxymethylcellulose (CMC) 104 % of control | endpoint: mean survival time, dose: 1.0 mg/kg/injection, schedule: Q#A X002 (ip), vehicle: carboxymethylcellulose (CMC) 108 % of control | endpoint: mean survival time, dose: 1.25 mg/kg/injection, schedule: Q01DX009 (ip), vehicle: saline 118 % of control | endpoint: mean survival time, dose: 1.25 mg/kg/injection, schedule: Q01DX010 (ip), vehicle: saline 118 % of control and 119 % of control | endpoint: mean survival time, dose: 2.0 mg/kg/injection, schedule: Q03HX008 (ip), vehicle: carboxymethylcellulose (CMC) 117 % of control | endpoint: mean survival time, dose: 2.0 mg/kg/injection, schedule: Q06HX004 (ip), vehicle: carboxymethylcellulose (CMC) 107 % of control | endpoint: mean survival time, dose: 2.0 mg/kg/injection, schedule: Q#A X002 (ip), vehicle: carboxymethylcellulose (CMC) 110 % of control | endpoint: mean survival time, dose: 2.5 mg/kg/injection, schedule: Q01DX009 (ip), vehicle: saline 116 % of control | endpoint: mean survival time, dose: 4.0 mg/kg/injection, schedule: Q01DX001 (ip), vehicle: carboxymethylcellulose (CMC) 120 % of control | endpoint: mean survival time, dose: 4.0 mg/kg/injection, schedule: Q03HX008 (ip), vehicle: carboxymethylcellulose (CMC) 108 % of control | endpoint: mean survival time, dose: 4.0 mg/kg/injection, schedule: Q06HX004 (ip), vehicle: carboxymethylcellulose (CMC) 114 % of control | endpoint: mean survival time, dose: 8.0 mg/kg/injection, schedule: Q01DX001 (ip), vehicle: carboxymethylcellulose (CMC) 124 % of control | endpoint: mean survival time, dose: 8.0 mg/kg/injection, schedule: Q03HX008 (ip), vehicle: carboxymethylcellulose (CMC) 118 % of control | endpoint: mean survival time, dose: 8.0 mg/kg/injection, schedule: Q06HX004 (ip), vehicle: carboxymethylcellulose (CMC) 116 % of control | endpoint: mean survival time, dose: 8.0 mg/kg/injection, schedule: Q#A X002 (ip), vehicle: carboxymethylcellulose (CMC) 122 % of control | endpoint: median survival time, dose: 0.06 mg/kg/injection, schedule: Q03HX024 (ip), vehicle: other 107 % of control | endpoint: median survival time, dose: 0.13 mg/kg/injection, schedule: Q03HX008 (ip), vehicle: other 102 % of control | endpoint: median survival time, dose: 0.13 mg/kg/injection, schedule: Q03HX016 (ip), vehicle: other 96 % of control | endpoint: median survival time, dose: 0.13 mg/kg/injection, schedule: Q03HX024 (ip), vehicle: other 100 % of control | endpoint: median survival time, dose: 0.25 mg/kg/injection, schedule: Q01DX009 (ip), vehicle: other 94 % of control | endpoint: median survival time, dose: 0.25 mg/kg/injection, schedule: Q01DX009 (sc), vehicle: other 93 % of control | endpoint: median survival time, dose: 0.25 mg/kg/injection, schedule: Q03HX008 (ip), vehicle: other 96 % of control | endpoint: median survival time, dose: 0.25 mg/kg/injection, schedule: Q03HX016 (ip), vehicle: other 94 % of control | endpoint: median survival time, dose: 0.25 mg/kg/injection, schedule: Q03HX024 (ip), vehicle: other 101 % of control | endpoint: median survival time, dose: 0.5 mg/kg/injection, schedule: Q01DX009 (ip), vehicle: other 88 % of control | endpoint: median survival time, dose: 0.5 mg/kg/injection, schedule: Q01DX009 (oral), vehicle: other 99 % of control | endpoint: median survival time, dose: 0.5 mg/kg/injection, schedule: Q01DX009 (sc), vehicle: other 98 % of control | endpoint: median survival time, dose: 0.5 mg/kg/injection, schedule: Q03HX008 (ip), vehicle: other 100 % of control | endpoint: median survival time, dose: 0.5 mg/kg/injection, schedule: Q03HX016 (ip), vehicle: other 101 % of control | endpoint: median survival time, dose: 0.5 mg/kg/injection, schedule: Q03HX024 (ip), vehicle: other 96 % of control | endpoint: median survival time, dose: 0.5 mg/kg/injection, schedule: Q04DX003 (ip), vehicle: other 98 % of control | endpoint: median survival time, dose: 1.0 mg/kg/injection, schedule: Q01DX001 (ip), vehicle: other 102 % of control | endpoint: median survival time, dose: 1.0 mg/kg/injection, schedule: Q01DX001 (sc), vehicle: other 104 % of control | endpoint: median survival time, dose: 1.0 mg/kg/injection, schedule: Q01DX009 (ip), vehicle: other 92 % of control | endpoint: median survival time, dose: 1.0 mg/kg/injection, schedule: Q01DX009 (oral), vehicle: other 99 % of control | endpoint: median survival time, dose: 1.0 mg/kg/injection, schedule: Q01DX009 (sc), vehicle: other 98 % of control | endpoint: median survival time, dose: 1.0 mg/kg/injection, schedule: Q03HX008 (ip), vehicle: other 99 % of control | endpoint: median survival time, dose: 1.0 mg/kg/injection, schedule: Q03HX016 (ip), vehicle: other 93 % of control | endpoint: median survival time, dose: 1.0 mg/kg/injection, schedule: Q04DX003 (ip), vehicle: other 99 % of control | endpoint: median survival time, dose: 1.0 mg/kg/injection, schedule: Q08DX002 (ip), vehicle: other 108 % of control | endpoint: median survival time, dose: 2.0 mg/kg/injection, schedule: Q01DX001 (ip), vehicle: other 111 % of control | endpoint: median survival time, dose: 2.0 mg/kg/injection, schedule: Q01DX001 (oral), vehicle: other 99 % of control | endpoint: median survival time, dose: 2.0 mg/kg/injection, schedule: Q01DX001 (sc), vehicle: other 103 % of control | endpoint: median survival time, dose: 2.0 mg/kg/injection, schedule: Q01DX009 (oral), vehicle: other 100 % of control | endpoint: median survival time, dose: 2.0 mg/kg/injection, schedule: Q01DX009 (sc), vehicle: other 91 % of control | endpoint: median survival time, dose: 2.0 mg/kg/injection, schedule: Q04DX003 (ip), vehicle: other 111 % of control | endpoint: median survival time, dose: 2.0 mg/kg/injection, schedule: Q08DX002 (ip), vehicle: other 104 % of control | endpoint: median survival time, dose: 4.0 mg/kg/injection, schedule: Q01DX001 (ip), vehicle: other 113 % of control | endpoint: median survival time, dose: 4.0 mg/kg/injection, schedule: Q01DX001 (oral), vehicle: other 96 % of control | endpoint: median survival time, dose: 4.0 mg/kg/injection, schedule: Q01DX001 (sc), vehicle: other 99 % of control | endpoint: median survival time, dose: 4.0 mg/kg/injection, schedule: Q01DX009 (oral), vehicle: other 101 % of control | endpoint: median survival time, dose: 4.0 mg/kg/injection, schedule: Q01DX009 (sc), vehicle: other 93 % of control | endpoint: median survival time, dose: 4.0 mg/kg/injection, schedule: Q04DX003 (ip), vehicle: other 106 % of control | endpoint: median survival time, dose: 4.0 mg/kg/injection, schedule: Q08DX002 (ip), vehicle: other 114 % of control | endpoint: median survival time, dose: 8.0 mg/kg/injection, schedule: Q01DX001 (ip), vehicle: other 110 % of control | endpoint: median survival time, dose: 8.0 mg/kg/injection, schedule: Q01DX001 (oral), vehicle: other 101 % of control | endpoint: median survival time, dose: 8.0 mg/kg/injection, schedule: Q01DX001 (sc), vehicle: other 100 % of control | endpoint: median survival time, dose: 8.0 mg/kg/injection, schedule: Q01DX009 (oral), vehicle: other 103 % of control | endpoint: median survival time, dose: 8.0 mg/kg/injection, schedule: Q04DX003 (ip), vehicle: other 90 % of control | endpoint: median survival time, dose: 8.0 mg/kg/injection, schedule: Q08DX002 (ip), vehicle: other 108 % of control | endpoint: median survival time, dose: 16.0 mg/kg/injection, schedule: Q01DX001 (oral), vehicle: other 100 % of control | endpoint: median survival time, dose: 32.0 mg/kg/injection, schedule: Q01DX001 (oral), vehicle: other 86 % of control

O=[N+]([O-])c1ccc(CCCl)c(CCl)c1
inactive: endpoint: mean survival time, dose: 100.0 mg/kg/injection, schedule: Q04DX003 (ip), vehicle: saline with Tween-80 98 % of control | endpoint: mean survival time, dose: 200.0 mg/kg/injection, schedule: Q04DX003 (ip), vehicle: saline with Tween-80 86 % of control

From PubChem BioAssay AID256 (DTP/NCI, 2004)
